Results taken from patent publication US6815419B1, “Antiulcer agent” (Morinaga Milk Industry Co., Ltd., priority 1999, dated 2004).

What was measured:
[1] = system: hydrochloric acid and ethanol induced lesions on the mucous membrane of the stomach; assay: Hydrochloric acid and ethanol induced ulcer in rats (method of Robert et al.), stomach examined after 1 hour; format: in vivo, Wistar rats; conditions: for Cumulative degree of lesions on mucous membrane: blank 60
Experimental: Male Wistar rats weighing 230 to 270 g, 11 weeks old, (purchased from Japan SLC CO., Ltd.) were randomly classified into five groups (each consisting of ten rats).
The experiment was carried out according to the method disclosed by Robert et al. (Gastroenterology, volume 77, pages 433 to 443, 1979). That is, rats were fasted for 24 hours and were orally administered with each test agent at a dose of 10 mg/kg of an active ingredient in body weight. Test agent 1 for a blank test was orally administered to the rats in an amount of 10 ml/kg body weight. After 30 minutes, hydrochloric acid and ethanol solution [hydrochloric acid and ethanol solution (M=mol/dm^3) prepared by mixing 500 mM of hydrogen chloride (HCl) solution and 75% ethanol solution at a volume ratio of […])] was orally administered to the rats at a dose of 5 ml/kg body weight.
After 1 hour, the rats were killed by ether inhalation, the stomach of each rat was taken out to the body surface, the pyloric part of the stomach was ligated, and then the stomach was removed. Then, 10 ml of 2% formalin solution was injected into the stomach from the cardiac part thereof, and the stomach was subsequently immersed in the formalin solution for 10 minutes for fixation. Then, the curvatura ventriculi major of the stomach fixed by formalin was cut to open, and the degree of ulcers was measured by the following method.
That is, the total area of injured portions on the mucous membrane of each rat was measured, and then the degree of lesions on the mucous membrane of each rat (score) was classified into six grades as shown in Table 1 in accordance with the total area of the injured portion.
This experiment was carried out in a manner identical to Example 1, except that α-lactalbumin included in the test agents as an active ingredient was respectively orally administered at a dose of 0 mg/kg body weight (blank test), 1 mg/kg body weight, 10 mg/kg body weight, or 100 mg/kg body weight.
This experiment was carried out in a manner identical to Example 1, except that α-lactalbumin included as an active ingredient in each test agent was respectively orally administered at a dose of 10 mg/kg body weight. The dose for the blank test was 0 mg/kg body weight.

[2] = system: ulcers caused by indomethacin; assay: Test Method 3: ulcers caused by a nonsteroidal anti-inflammatory drug (indomethacin) in rats; format: in vivo, Wistar rats; conditions: test group 5; sum of scores of ten rats; oral 10 mg/kg, 1 mg/ml; 7 hours after indomethacin 30 mg/kg oral; blank 50
Experimental: (§1) Male Wistar rats weighing 230 to 270 g, 11 weeks old, (purchased from Japan SLC CO., Ltd.) were randomly classified into six groups (each consisting of ten rats).
(§2) As test agents (antiulcer agents including α-lactalbumin of the present invention as an active ingredient), commercially available α-lactalbumin (manufactured by Sigma Co., Ltd.) was dissolved in distilled water to a concentration of 1 mg/ml to be used. As a test agent for a blank test, distilled water was used.
This experiment was carried out in a manner identical to Method 1 described above, except that ulcers were induced in accordance with the method of Okabe, et al. (Japanese Journal of Pharmacology, volume 29, pages 670 to 673, […]). That is, rats fasted for 24 hours were orally administered with the each test agent at a dose of 10 mg/kg of an active ingredient in body weight (test group number 5). The test agent for a blank test was orally administered to each rat in an amount of 10 ml/kg body weight (test group number 6). After 30 minutes, indomethacin at a dose of 30 mg/kg body weight, which is a representative nonsteroidal anti-inflammatory drug, was orally administered.
After 7 hours, the degree of ulcers was measured in a manner identical to Method 1 described above.

CD (SD) rats = assay: Acute toxicity of single oral administration in rats; format: in vivo; conditions: for Number of deaths/Total number, Female: female rats; for Number of deaths/Total number, Male: male rats
Experimental: Male and Female CD (SD) rats, 6 weeks old, purchased from Japan SLC CO., Ltd.) were respectively and randomly classified into three groups (each consisting of five rats) to be used for this experiment.
Commercially available α-lactalbumin (manufactured by Sigma Co., Ltd.) was dissolved in water for injection (manufactured by Otsuka Pharmaceutical Co., Ltd.) to each of a concentration of 100 mg/ml and 200 mg/ml, which were respectively and orally administered in an amount of 1 ml per 100 g of body weight (at each dose of 1000 mg and 2000 mg per 1 kg of rat body weight) to each rat of each group by single oral instillation by means of a metal probe with a rounded tip, in order to examine the acute toxicity. As a blank test, only water for injection (manufactured by Otsuka Pharmaceutical Co., Ltd.) was administered in the same way to each rat of both groups of males and females.

stress-induced ulcers = assay: Test Method 2: stress-induced ulcers in rats (restraint and water immersion, Takagi and Okabe); format: in vivo, Wistar rats; conditions: test group 3; sum of scores of ten rats; oral 10 mg/kg, 1 mg/ml; 7 hours restraint in water at 23° C.; blank 50
Experimental: as §1, §2
This experiment was carried out in a manner identical to Method 1 described above, except that ulcers were induced according to the method described by Takagi and Okabe (Japanese Journal of Pharmacology, volume 18, pages 9 to 18, 1968). That is, rats fasted for 24 hours were orally administered with each test agent including at a dose of 10 mg/kg of an active ingredient in body weight (test group number 3). The test agent for a blank test was orally administered to rats in an amount of 10 ml/kg body weight (test group number 4). After 30 minutes, each rat was held in a stainless steel restrictive cage, and was left in a water tank at 23° C., standing and submerging to the depth of the bottom of the breast xiphoid process of the rat.
After 7 hours, each rat was pulled up from the water tank, and the degree of ulcers was measured in a manner identical to Method 1 described above.

alcohol-induced ulcers = assay: Test Method 1: alcohol-induced ulcers in rats, stomach examined after 7 hours; format: in vivo, Wistar rats; conditions: test group 1; sum of scores of ten rats; oral 10 mg/kg, 1 mg/ml; 7 hours after HCl/ethanol; blank 50
Experimental: as §1, §2
This experiment was carried out according to the method disclosed by Robert et al. (Gastroenterology, volume 77, pages 433 to 443, 1979) in a manner similar to Example 1. That is, rats fasted for 24 hours were orally administered with each test agent at a dose of 10 mg/kg of an active ingredient in body weight (test group number 1). The test agent for a blank test was orally administered to rats in an amount of 10 ml/kg in body weight (test group number 2). […]
After 7 hours, the rats were killed by ether inhalation, the stomach of each rat was taken out to the body surface, the pyloric part of the stomach was ligated, and then the stomach was removed. […] Then, the curvatura ventriculi major of the stomach fixed by formalin was cut to open, and the degree of ulcers was measured in a manner identical to Example 1.

Substance: α-lactalbumin
- Concentration of test agent that shows antiulcer effects ([1]; oral dose fixed at 10 mg/kg): no less than 0.5 mg/ml
- Concentration of test agent that shows significant antiulcer effects ([1]; oral dose fixed at 10 mg/kg): no less than 1 mg/ml
- Effective dose for oral administration ([1]; rats, oral, significant antiulcer effects): no less than 10 mg per 1 kg of body weight
- Cumulative degree of lesions on mucous membrane ([1]; sum of scores (0-6, Table 1) of ten rats, oral 10 mg/kg active ingredient, 1 mg/ml, 30 min before HCl/ethanol): 7
- Cumulative degree of lesions on mucous membrane ([1]; sum of scores of ten rats, concentration 0.25 mg/ml, oral dose 10 mg/kg): 30
- Cumulative degree of lesions on mucous membrane ([1]; sum of scores of ten rats, concentration 0.5 mg/ml, oral dose 10 mg/kg): 13
- Cumulative degree of lesions on mucous membrane ([1]; sum of scores of ten rats, concentration 1 mg/ml, oral dose 10 mg/kg): 7
- Cumulative degree of lesions on mucous membrane ([1]; sum of scores of ten rats, concentration 5 mg/ml, oral dose 10 mg/kg): 5
- Cumulative degree of lesions on mucous membrane ([1]; sum of scores of ten rats, concentration 10 mg/ml, oral dose 10 mg/kg): 5
- Cumulative degree of lesions on mucous membrane ([1]; sum of scores of ten rats, oral dose 1 mg/kg, 1 mg/ml): 47
- Cumulative degree of lesions on mucous membrane ([1]; sum of scores of ten rats, oral dose 10 mg/kg, 1 mg/ml): 7
- Cumulative degree of lesions on mucous membrane ([1]; sum of scores of ten rats, oral dose 100 mg/kg, 1 mg/ml): 3
- Cumulative degree of lesions on mucous membrane [2]: 23
- Number of deaths/Total number, Female (CD (SD) rats; single oral dose 1000 mg/kg): 0/5
- Number of deaths/Total number, Female (CD (SD) rats; single oral dose 2000 mg/kg): 0/5
- Number of deaths/Total number, Male (CD (SD) rats; single oral dose 1000 mg/kg): 0/5
- Number of deaths/Total number, Male (CD (SD) rats; single oral dose 2000 mg/kg): 0/5
- LD50 (CD (SD) rats; rats, single oral administration): no less than 2000 mg/kg body weight
- Cumulative degree of lesions on mucous membrane (stress-induced ulcers): 12
- Cumulative degree of lesions on mucous membrane (alcohol-induced ulcers): 6
